Numbers after ± are expanded uncertainties.

In general, mass density refers to the mass of a sample divided by its volume. By vapor or sublimation pressure is commonly meant the pressure of vapour in equilibrium with the condensed phase. For orientation: refractive index means the speed of light in vacuum divided by its phase velocity in the sample.

The conditions of series [1]: Liquid; for mass density: 293.15 K, 101.33 kPa, Vibrating tube method; for vapor or sublimation pressure: 298 K, Gas chromatography.
Series [2] in a line: refractive index (Na D-line) (dimensionless). The following applies: 293.15 K; 101.33 kPa; Liquid; Standard Abbe refractometry.

As to `FC(F)(F)C(F)(F)C(F)(F)C(F)(F)C(F)(F)C(F)(F)C(F)(F)F` [hexadecafluoroheptane], in series [1], the mass density is given as 1717 ± 1 kg/m3 and the “vapor or sublimation pressure” value is recorded as 10.12 ± 0.79 kPa. Further, in series [2], the refractive index was determined as 1.261 ± 0.001.
As for `FC(F)(F)C(F)(F)C(F)(F)C(F)(F)C(F)(F)C(F)(F)C(F)(F)C(F)(F)C(F)(F)F` [eicosafluorononane], in series [1], the mass density came to 1798 ± 1 kg/m3 and the “vapor or sublimation pressure” value is 2.57 ± 0.27 kPa. Also, the refractive index in series [2] is 1.275 ± 0.001.
